Results as given in patent publication US4605744A, “Imidazole derivatives” (Hoffmann-La Roche Inc., priority 1985, dated 1986).
Counter-ions that a name gives are not always drawn.

Key:
Type in all cases: cell-based
E. coli 257 = test: In vitro antibacterial activity (MIC, Mueller-Hinton broth); details: Escherichia coli, 257, E. coli 257; read-out: MIC
In short: (§1)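 Broth microdilution in Mueller-Hinton broth, drug range 128 to 0.008 μg/ml. Each well received 1.5 μl of a 10^-2 dilution of an overnight culture; sealed trays were incubated overnight at 37° C. MIC = lowest concentration with no visible growth.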

E. cloacae 9295 = test: In vitro antibacterial activity (MIC); details: Enterobacter cloacae, 9295, E. cloacae 9295; read-out: MIC
In short: as §1

E. aerogenes 83 = test: In vitro antibacterial activity (MIC); details: Klebsiella aerogenes, 83, E. aerogenes 83; read-out: MIC
In short: as §1

P. mirabilis 190 = test: In vitro antibacterial activity (MIC); details: Proteus mirabilis, 190, P. mirabilis 190; read-out: MIC
In short: as §1

S. marcescens S714 = test: In vitro antibacterial activity (MIC); details: Serratia marcescens, S714, S. marcescens S714; read-out: MIC
In short: as §1

P. mirabilis 90 = test: In vitro antibacterial activity (MIC); details: Proteus mirabilis, 90, P. mirabilis 90; read-out: MIC
In short: as §1

E. cloacae 9570A = test: In vitro antibacterial activity (MIC); details: Enterobacter cloacae, read-out: MIC
In short: as §1

P. aeruginosa 8780 = test: In vitro antibacterial activity (MIC); details: Pseudomonas aeruginosa; P. aeruginosa 8780; read-out: MIC
In short: as §1

P. mirabilis 503-1136 = test: In vitro antibacterial activity (MIC); details: Proteus mirabilis, 5031136, P. mirabilis 503-1136; read-out: MIC
In short: as §1

P. mirabilis 2 = test: In vitro antibacterial activity (MIC); details: Proteus mirabilis, 2, P. mirabilis 2; read-out: MIC
In short: as §1

S. marcescens 5805 = test: In vitro antibacterial activity (MIC); details: Serratia marcescens, 5805, S. marcescens 5805; read-out: MIC
In short: as §1

S. marcescens S4 = test: In vitro antibacterial activity (MIC); details: Serratia marcescens, S4, S. marcescens S4; read-out: MIC
In short: as §1

K. pneumoniae A = test: In vitro antibacterial activity (MIC); details: Klebsiella pneumoniae, K. pneumoniae A; read-out: MIC
In short: as §1

P. aeruginosa 6148B = test: In vitro antibacterial activity (MIC); details: Pseudomonas aeruginosa, read-out: MIC
In short: as §1

S. pyogenes 4 = test: In vitro antibacterial activity (MIC); details: Streptococcus pyogenes, 4, S. pyogenes 4; read-out: MIC
In short: as §1

E. cloacae P99 = test: In vitro antibacterial activity (MIC); details: Enterobacter cloacae, P99, E. cloacae P99
In short: as §1

S. marcescens S5 = test: In vitro antibacterial activity (MIC); details: Serratia marcescens, S5, S. marcescens S5; read-out: MIC
In short: as §1

E. cloacae 5699 = test: In vitro antibacterial activity (MIC); details: Enterobacter cloacae, 5699, E. cloacae 5699; read-out: MIC
In short: as §1

K. pneumoniae HE7 = test: In vitro antibacterial activity (MIC); details: Klebsiella pneumoniae; K. pneumoniae HE7; read-out: MIC
In short: as §1

E. cloacae 24 = test: In vitro antibacterial activity (MIC); details: Enterobacter cloacae, 24, E. cloacae 24; read-out: MIC
In short: as §1

K. pneumoniae 8357 = test: In vitro antibacterial activity (MIC); details: Klebsiella pneumoniae, 8357, K. pneumoniae 8357; read-out: MIC
In short: as §1

P. vulgaris ATCC 6380 = test: In vitro antibacterial activity (MIC); details: Proteus vulgaris, ATCC6380, P. vulgaris ATCC 6380; read-out: MIC
In short: as §1

K. pneumoniae 4964 = test: In vitro antibacterial activity (MIC); details: Klebsiella pneumoniae, 4964, K. pneumoniae 4964; read-out: MIC
In short: as §1

P. aeruginosa 5712 = test: In vitro antibacterial activity (MIC); details: Pseudomonas aeruginosa; P. aeruginosa 5712; read-out: MIC
In short: as §1

S. aureus Giorgio = test: In vitro antibacterial activity (MIC); details: Staphylococcus aureus, S. aureus Giorgio; read-out: MIC
In short: as §1

S. marcescens SM = test: In vitro antibacterial activity (MIC); details: Serratia marcescens, read-out: MIC
In short: as §1

S. pneumoniae SC = test: In vitro antibacterial activity (MIC); details: Streptococcus pneumoniae, read-out: MIC
In short: as §1

E. aerogenes 8 = test: In vitro antibacterial activity (MIC); details: Klebsiella aerogenes; E. aerogenes 8; read-out: MIC
In short: as §1

S. schottmuelleri = test: In vitro antibacterial activity (MIC); details: read-out: MIC
In short: as §1

P. aeruginosa POW 151 = test: In vitro antibacterial activity (MIC); details: Pseudomonas aeruginosa, POW151
In short: as §1

P. aeruginosa 503-820 = test: In vitro antibacterial activity (MIC); details: Pseudomonas aeruginosa, 503820; P. aeruginosa 503-820; read-out: MIC
In short: as §1

S. marcescens S147 = test: In vitro antibacterial activity (MIC); details: Serratia marcescens; S. marcescens S147; read-out: MIC
In short: as §1

S. aureus Smith = test: In vitro antibacterial activity (MIC); details: Staphylococcus aureus, S. aureus Smith; read-out: MIC
In short: as §1

K. pneumoniae 503-994 = test: In vitro antibacterial activity (MIC); details: Klebsiella pneumoniae, 503994, K. pneumoniae 503-994; read-out: MIC
In short: as §1

P. mirabilis 620A = test: In vitro antibacterial activity (MIC); details: Proteus mirabilis, 620A, P. mirabilis 620A; read-out: MIC
In short: as §1

P. vulgaris 101 = test: In vitro antibacterial activity (MIC); details: Proteus vulgaris, 101, P. vulgaris 101; read-out: MIC
In short: as §1

E. aerogenes 503-478 = test: In vitro antibacterial activity (MIC); details: Klebsiella aerogenes, 503478, E. aerogenes 503-478; read-out: MIC
In short: as §1

S. marcescens S3 = test: In vitro antibacterial activity (MIC); details: Serratia marcescens; S. marcescens S3; read-out: MIC
In short: as §1

P. vulgaris 100 = test: In vitro antibacterial activity (MIC); details: Proteus vulgaris; P. vulgaris 100; read-out: MIC
In short: as §1

P. rettgeri ATCC 9250 = test: In vitro antibacterial activity (MIC); details: Providencia rettgeri, ATCC9250, P. rettgeri ATCC 9250; read-out: MIC
In short: as §1

C. freundii 8ASM = test: In vitro antibacterial activity (MIC); details: Citrobacter freundii, 8ASM, C. freundii 8ASM; read-out: MIC
In short: as §1

K. pneumoniae 5096 = test: In vitro antibacterial activity (MIC); details: Klebsiella pneumoniae; K. pneumoniae 5096; read-out: MIC
In short: as §1

S. marcescens S2 = test: In vitro antibacterial activity (MIC); details: Serratia marcescens; S. marcescens S2; read-out: MIC
In short: as §1

S. aureus 1059B = test: In vitro antibacterial activity (MIC); details: Staphylococcus aureus, read-out: MIC
In short: as §1

E. cloacae 214 = test: In vitro antibacterial activity (MIC); details: Enterobacter cloacae, 214, E. cloacae 214; read-out: MIC
In short: as §1

SMILES: CC1(C)S[C@@H]2[C@H](N=CN3CCC(CC4=NCCN4)CC3)C(=O)N2[C@H]1C(=O)O [M, [2S-(2alpha,5alpha,6beta)]-6-[[[4-[(4,5-dihydro-1H-imidazol-2-yl)methyl]-1-piperidinyl]methylene]amino]-3,3-dimethyl-7-oxo-4-thia-1-azabicyclo[3.2.0]heptane-2-carboxylic acid hydrochloride]
- MIC (E. coli 257): 0.125 µg/mL
- MIC (E. cloacae 9295): 0.5 µg/mL
- MIC (E. aerogenes 83): 2 µg/mL
- MIC (P. mirabilis 190): 0.5 µg/mL
- MIC (S. marcescens S714): 0.5 µg/mL
- MIC (P. mirabilis 90): 0.5 µg/mL
- MIC (E. cloacae 9570A): 0.25 µg/mL
- MIC (P. aeruginosa 8780): 128 µg/mL
- MIC (P. mirabilis 503-1136): 8 µg/mL
- MIC (P. mirabilis 2): 0.5 µg/mL
- MIC (S. marcescens 5805): 1 µg/mL
- MIC (S. marcescens S4): 1 µg/mL
- MIC (K. pneumoniae A): 0.062 µg/mL
- MIC (P. aeruginosa 6148B): 32 µg/mL
- MIC (S. pyogenes 4): 1 µg/mL
- MIC (E. cloacae P99): 0.062 µg/mL
- MIC (S. marcescens S5): 1 µg/mL
- MIC (E. cloacae 5699): 0.25 µg/mL
- MIC (K. pneumoniae HE7): > 128 µg/mL
- MIC (E. cloacae 24): 0.5 µg/mL
- MIC (K. pneumoniae 8357): 1 µg/mL
- MIC (P. vulgaris ATCC 6380): 0.25 µg/mL
- MIC (K. pneumoniae 4964): 2 µg/mL
- MIC (P. aeruginosa 5712): 128 µg/mL
- MIC (S. aureus Giorgio): 2 µg/mL
- MIC (S. marcescens SM): 0.125 µg/mL
- MIC (S. pneumoniae SC): 1 µg/mL
- MIC (E. aerogenes 8): 32 µg/mL
- MIC (S. schottmuelleri): 0.062 µg/mL
- MIC (P. aeruginosa POW 151): > 128 µg/mL
- MIC (P. aeruginosa 503-820): 64 µg/mL
- MIC (S. marcescens S147): 0.25 µg/mL
- MIC (S. aureus Smith): 4 µg/mL
- MIC (K. pneumoniae 503-994): 0.25 µg/mL
- MIC (P. mirabilis 620A): > 128 µg/mL
- MIC (P. vulgaris 101): 16 µg/mL
- MIC (E. aerogenes 503-478): 4 µg/mL
- MIC (S. marcescens S3): 0.125 µg/mL
- MIC (P. vulgaris 100): 8 µg/mL
- MIC (P. rettgeri ATCC 9250): 0.5 µg/mL
- MIC (C. freundii 8ASM): 0.062 µg/mL
- MIC (K. pneumoniae 5096): > 128 µg/mL
- MIC (S. marcescens S2): 0.25 µg/mL
- MIC (S. aureus 1059B): 32 µg/mL
- MIC (E. cloacae 214): 0.25 µg/mL
